Assay results as given in patent US9302999B2, “Substituted triazoles as herbicides” (E. I. DU PONT DE NEMOURS AND COMPANY, priority 2012, dated 2016).

Assays:
[1] = system: speedwell (bird's-eye speedwell, Veronica persica); experiment: Test D pre-/postemergence: speedwell; assay type: in vivo; conditions: Preemergence
Summary of the method: (§1)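 Visual control ratings (0–100) after 14–21 days, controlled environment. Preemergence on silt loam; postemergence on 2–18 cm plants.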

[2] = system: ryegrass, Italian (Italian ryegrass, Lolium multiflorum); experiment: Test D pre-/postemergence: ryegrass, Italian; assay type: in vivo
Summary of the method: as §1

[3] = system: johnsongrass (Sorghum halepense); experiment: Test F pre-/postemergence: johnsongrass; assay type: in vivo; conditions: Preemergence
Excerpt: Seeds of plant species selected from corn (Zea mays), soybean (Glycine max), velvetleaf (Abutilon theophrasti), lambsquarters (Chenopodium album), poinsettia, wild (wild poinsettia, Euphorbia heterophylla), pigweed, palmer (palmer pigweed, Amaranthus palmeri), waterhemp (common waterhemp, Amaranthus rudis), surinam grass (Brachiaria decumbens), crabgrass, Brazil (Brazilian crabgrass, Digitaria horizontalis), panicum, fall (fall panicum Panicum dichotomiflorum), crabgrass, large (large crabgrass, Digitaria sanguinalis), foxtail, giant (giant foxtail, Setaria faberii), foxtail, green (green foxtail Setaria viridis), goosegrass (Eleusine indica), ragweed (common ragweed, Ambrosia elatior), barnyardgrass (Echinochloa crus-galli), sandbur (southern sandbur, Cenchrus echinatus), arrowleaf sida (Sida rhombifolia), ryegrass, Italian (Italian ryegrass, Lolium multiflorum), dayflower, VA (Virginia (VA) dayflower, Commelina virginica), field bindweed (Convolvulus arvensis), cocklebur (common cocklebur, Xanthium strumarium), morningglory (Ipomoea coccinea), nightshade (eastern black nightshade, Solanum ptycanthum), kochia (Kochia scoparia), nutsedge, yellow (yellow nutsedge, Cyperus esculentus), johnsongrass (Sorghum halepense), smartweed (ladysthumb smartweed, Polygonum persicaria), and beggarticks (hairy beggarticks, Bidens pilosa), were planted into a silt loam soil and treated preemergence with test chemicals formulated in a non-phytotoxic solvent mixture which included a surfactant. At the same time, plants selected from these crop and weed species and also pigweed (Amaranthus retroflexus), waterhemp_RES1 (ALS/Triazine resistant common waterhemp, Amaranthus rudis) and waterhemp_RES2 (ALS/HPPD resistant common waterhemp, Amaranthus rudis) were planted in pots containing a planting medium comprising spaghnum peat moss, vermiculite, wetting agent and starter nutrients treated with postemergence applications of some of the test chemicals formulated in the same manner. Plants ranged in height from 2 to 18 cm for postemergence treatments (1- to 4-leaf stage).
Treated plants and controls were maintained in a greenhouse for 14 to 21 days, after which time all species were compared to controls and visually evaluated. Plant response ratings, summarized in Table E, are based on a scale of 0 to 100 where 0 is no effect and 100 is complete control. A dash (-) response means no test result.

[4] = system: canarygrass (Phalaris minor); experiment: Test D pre-/postemergence: canarygrass; assay type: in vivo
Summary of the method: as §1

[5] = system: chickweed (common chickweed, Stellaria media); experiment: Test D pre-/postemergence: chickweed; assay type: in vivo
Summary of the method: as §1

[6] = system: chamomile (scentless chamomile, Matricaria inodora); experiment: Test D pre-/postemergence: chamomile; assay type: in vivo
Summary of the method: as §1

Waterhemp = experiment: Test C preemergence: waterhemp; assay type: in vivo, Amaranthus rudis; conditions: 125 g ai/ha, scale 0 to 100, 0 no effect, 100 complete control
[7] = 16 g ai/ha, scale 0 to 100, 0 no effect, 100 complete control
[8] = 31 g ai/ha, scale 0 to 100, 0 no effect, 100 complete control
[9] = Postemergence, 31 g ai/ha, scale 0 to 100 (0 no effect, 100 complete control)
[10] = Postemergence, 62 g ai/ha, scale 0 to 100 (0 no effect, 100 complete control)
[11] = Postemergence, 125 g ai/ha, scale 0 to 100, 0 no effect, 100 complete control
[12] = Postemergence, 16 g ai/ha, scale 0 to 100
[13] = Preemergence, 16 g ai/ha, scale 0 to 100, 0 no effect, 100 complete control
[14] = Preemergence, 31 g ai/ha, scale 0 to 100, 0 no effect, 100 complete control
[15] = Preemergence, 62 g ai/ha, scale 0 to 100
[16] = Preemergence, 125 g ai/ha, scale 0 to 100

Cc1nn(-c2ccc(C(F)(F)F)c(F)c2)nc1Oc1ccnc(C(F)(F)F)c1 [Compound 148]
Plant response rating, Speedwell [1, 7]: 5
Plant response rating, Speedwell [1, 8]: 95
Plant response rating, Speedwell ([1]; 62 g ai/ha, scale 0 to 100): 50
Plant response rating, Speedwell ([1]; 125 g ai/ha, scale 0 to 100): 100
Plant response rating: Ryegrass, Italian [2, 9]: 15
Plant response rating: Ryegrass, Italian [2, 10]: 20
Plant response rating: Ryegrass, Italian [2, 11]: 20
Plant response rating, Ryegrass, Italian [2, 12]: 5
Plant response rating, Ryegrass, Italian [2, 13]: 0
Plant response rating, Ryegrass, Italian [2, 14]: 5
Plant response rating, Ryegrass, Italian [2, 15]: 5
Plant response rating, Ryegrass, Italian [2, 16]: 35
Plant response rating, Johnsongrass [3, 7]: 0
Plant response rating, Johnsongrass [3, 8]: 20
Plant response rating, Johnsongrass ([3]; 62 g ai/ha, scale 0 to 100): 20
Plant response rating, Johnsongrass ([3]; 125 g ai/ha, scale 0 to 100): 30
Plant response rating, Johnsongrass ([3]; 250 g ai/ha, scale 0 to 100): 40
Plant response rating: Canarygrass [4, 9]: 30
Plant response rating: Canarygrass [4, 10]: 20
Plant response rating: Canarygrass [4, 11]: 70
Plant response rating, Canarygrass [4, 12]: 10
Plant response rating, Canarygrass [4, 13]: 0
Plant response rating, Canarygrass [4, 14]: 50
Plant response rating, Canarygrass [4, 15]: 60
Plant response rating, Canarygrass [4, 16]: 100
Plant response rating: Chickweed [5, 9]: 70
Plant response rating: Chickweed [5, 10]: 80
Plant response rating: Chickweed [5, 11]: 90
Plant response rating, Chickweed [5, 12]: 60
Plant response rating, Chickweed [5, 13]: 25
Plant response rating, Chickweed [5, 14]: 60
Plant response rating, Chickweed [5, 15]: 70
Plant response rating, Chickweed [5, 16]: 100
Plant response rating: Chamomile [6, 9]: 70
Plant response rating: Chamomile [6, 10]: 75
Plant response rating: Chamomile [6, 11]: 95
Plant response rating, Chamomile [6, 12]: 60
Plant response rating, Chamomile [6, 13]: 10
Plant response rating, Chamomile [6, 14]: 20
Plant response rating, Chamomile [6, 15]: 70
Plant response rating, Chamomile [6, 16]: 100

CCc1nn(-c2ccc(F)cc2)nc1Cc1ccnc(C(F)(F)F)c1 [Compound 154]
Plant response rating, Johnsongrass [3, 7]: 0
Plant response rating, Johnsongrass [3, 8]: 20
Plant response rating, Johnsongrass ([3]; 62 g ai/ha, scale 0 to 100): 25
Plant response rating, Johnsongrass ([3]; 125 g ai/ha, scale 0 to 100): 50
Plant response rating, Johnsongrass ([3]; 250 g ai/ha, scale 0 to 100): 98
Plant response rating, Waterhemp (Waterhemp): 100

CCc1nn(-c2ccc(C(F)(F)F)cc2)nc1Cc1ccnc(C(F)(F)F)c1 [Compound 155]
Plant response rating, Speedwell [1, 7]: 100
Plant response rating, Speedwell [1, 8]: 100
Plant response rating, Speedwell ([1]; 62 g ai/ha, scale 0 to 100): 100
Plant response rating, Speedwell ([1]; 125 g ai/ha, scale 0 to 100): 100
Plant response rating: Ryegrass, Italian [2, 9]: 15
Plant response rating: Ryegrass, Italian [2, 10]: 25
Plant response rating: Ryegrass, Italian [2, 11]: 60
Plant response rating, Ryegrass, Italian [2, 12]: 5
Plant response rating, Ryegrass, Italian [2, 13]: 0
Plant response rating, Ryegrass, Italian [2, 14]: 0
Plant response rating, Ryegrass, Italian [2, 15]: 10
Plant response rating, Ryegrass, Italian [2, 16]: 65
Plant response rating, Johnsongrass ([3]; 62 g ai/ha, scale 0 to 100): 90
Plant response rating, Johnsongrass ([3]; 125 g ai/ha, scale 0 to 100): 90
Plant response rating, Johnsongrass ([3]; 250 g ai/ha, scale 0 to 100): 100
Plant response rating: Canarygrass [4, 9]: 70
Plant response rating: Canarygrass [4, 10]: 70
Plant response rating: Canarygrass [4, 11]: 85
Plant response rating, Canarygrass [4, 12]: 20
Plant response rating, Canarygrass [4, 13]: 10
Plant response rating, Canarygrass [4, 14]: 70
Plant response rating, Canarygrass [4, 15]: 100
Plant response rating, Canarygrass [4, 16]: 100
Plant response rating: Chickweed [5, 9]: 70
Plant response rating: Chickweed [5, 10]: 75
Plant response rating: Chickweed [5, 11]: 100
Plant response rating, Chickweed [5, 12]: 65
Plant response rating, Chickweed [5, 13]: 35
Plant response rating, Chickweed [5, 14]: 50
Plant response rating, Chickweed [5, 15]: 100
Plant response rating, Chickweed [5, 16]: 100
Plant response rating: Chamomile [6, 9]: 70
Plant response rating: Chamomile [6, 10]: 80
Plant response rating: Chamomile [6, 11]: 85
Plant response rating, Chamomile [6, 12]: 60
Plant response rating, Chamomile [6, 13]: 5
Plant response rating, Chamomile [6, 14]: 80
Plant response rating, Chamomile [6, 15]: 95
Plant response rating, Chamomile [6, 16]: 100
Plant response rating, Waterhemp (Waterhemp): 100

Cc1nn(-c2ccc(F)c(C(F)(F)F)c2)nc1Cc1ccnc(C(F)(F)F)c1 [Compound 156]
Plant response rating, Speedwell [1, 7]: 10
Plant response rating, Speedwell [1, 8]: 100
Plant response rating, Speedwell ([1]; 62 g ai/ha, scale 0 to 100): 100
Plant response rating, Speedwell ([1]; 125 g ai/ha, scale 0 to 100): 100
Plant response rating: Ryegrass, Italian [2, 9]: 15
Plant response rating: Ryegrass, Italian [2, 10]: 10
Plant response rating: Ryegrass, Italian [2, 11]: 25
Plant response rating, Ryegrass, Italian [2, 12]: 5
Plant response rating, Ryegrass, Italian [2, 13]: 0
Plant response rating, Ryegrass, Italian [2, 14]: 5
Plant response rating, Ryegrass, Italian [2, 15]: 5
Plant response rating, Ryegrass, Italian [2, 16]: 60
Plant response rating: Canarygrass [4, 9]: 30
Plant response rating: Canarygrass [4, 10]: 65
Plant response rating: Canarygrass [4, 11]: 80
Plant response rating, Canarygrass [4, 12]: 15
Plant response rating, Canarygrass [4, 13]: 15
Plant response rating, Canarygrass [4, 14]: 70
Plant response rating, Canarygrass [4, 15]: 100
Plant response rating, Canarygrass [4, 16]: 100
Plant response rating: Chickweed [5, 9]: 75
Plant response rating: Chickweed [5, 10]: 90
Plant response rating: Chickweed [5, 11]: 95
Plant response rating, Chickweed [5, 12]: 60
Plant response rating, Chickweed [5, 13]: 50
Plant response rating, Chickweed [5, 14]: 100
Plant response rating, Chickweed [5, 15]: 100
Plant response rating, Chickweed [5, 16]: 100
Plant response rating: Chamomile [6, 9]: 70
Plant response rating: Chamomile [6, 10]: 75
Plant response rating: Chamomile [6, 11]: 100
Plant response rating, Chamomile [6, 12]: 50
Plant response rating, Chamomile [6, 13]: 10
Plant response rating, Chamomile [6, 14]: 55
Plant response rating, Chamomile [6, 15]: 100
Plant response rating, Chamomile [6, 16]: 100
Plant response rating, Waterhemp (Waterhemp): 100
